# Reference: patent US20190307843A1, “SINGLE DOSE METHODS FOR PREVENTING AND TREATING FUNGAL INFECTIONS” (Cidara Therapeutics, Inc., priority 2016, published 2019)
# Where two headings read alike, the source gives them in different places. Starred links: 1 amine or outer side, 2 acyl side, 3 side chain; linkers in the order of their positions; H or OH if unused. Positions of bridges follow the written chain, without caps; N, C: chain ends. Non-standard residues stand in square brackets, D forms with d. Residues, ends and D or L forms follow the SMILES beside them. *: point of attachment. Orn(4R-OH,5R-OCH2CH2NMe3+) = C[N+](C)(C)CCO[C@@H](N[*:3])[C@H](O)C[C@H](N[*:1])C(=O)[*:2]; pTerphenylCO(4''-OnC5H11) = CCCCCOc1ccc(-c2ccc(-c3ccc(C(=O)*)cc3)cc2)cc1; hTyr(3S-OH,4S-OH) = N[C@H](C(=O)O)[C@H](O)[C@@H](O)c1ccc(O)cc1; Pro(3S-OH,4S-Me) = C[C@H]1CN[C@H](C(=O)O)[C@H]1O; Hyp = O=C(O)[C@@H]1C[C@@H](O)CN1
# How the values were obtained:
# Candida auris strains = assay: Candida auris antifungal susceptibility testing (CLSI M27-A3), 38 strains; format: cell-based; conditions: for MIC: Candidozyma auris, read-out: MIC
# A. fumigatus AF293 = assay: Murine model of pulmonary aspergillosis (Example 19), terminal lung burden; format: in vivo, Aspergillus fumigatus
# Description: A secondary endpoint for the study was terminal lung tissue burden. Immediately following confirmation of death, carcasses were frozen at −20° C. prior to tissue dissection and processing. The frozen carcasses were thawed at room temperature, the lungs removed and placed into pre-weighed bead-beating tubes containing 2 mL of PBS and subjected to mechanical disruption. Organ homogenates were diluted further in PBS and quantitatively cultured for A. fumigatus onto SABC and incubated at 30° C. for 24-48 hours.
# 2. Lung tissue burden data were analysed using the non-parametric Kruskal-Wallis test and if this was statistically significant all pairwise comparisons were analyzed (Conover-Inman).
# [1] = test system: C. albicans SC-5314 biofilms; assay: Mature phase biofilms (treatment), XTT metabolic activity and CSLM; format: cell-based, Candida albicans
smiles,measurement,setting,value
"CCCCCOc1ccc(-c2ccc(-c3ccc(C(=O)N[C@H]4C[C@@H](O)[C@@H](OCC[N+](C)(C)C)NC(=O)[C@@H]5[C@@H](O)[C@@H](C)CN5C(=O)[C@H]([C@@H](C)O)NC(=O)[C@H]([C@H](O)[C@@H](O)c5ccc(O)cc5)NC(=O)[C@@H]5C[C@@H](O)CN5C(=O)[C@H]([C@@H](C)O)NC4=O)cc3)cc2)cc1 [CD101] ({pTerphenylCO(4''-OnC5H11)}-[Orn(4R-OH,5R-OCH2CH2NMe3+)]T[Hyp][hTyr(3S-OH,4S-OH)]T[Pro(3S-OH,4S-Me)]; lactam 1-C)",MIC,"Candida auris strains; 24 h, strain 12 VCPI 482/P/13, 24 h",0.25 µg/mL
same,MIC,"Candida auris strains; 24 h, strain 13 VCPI 483/P/13, 24 h",0.25 µg/mL
same,MIC,"Candida auris strains; 24 h, strain 14 VCPI 1130/P/13, 24 h",0.5 µg/mL
same,MIC,"Candida auris strains; 24 h, strain 15 VCPI 1132/P/13, 24 h",0.5 µg/mL
same,MIC,"Candida auris strains; 24 h, strain 16 VCPI 1133/P/13, 24 h",16 µg/mL
same,MIC,"Candida auris strains; 24 h, strain 17 VCPI 105/P/14, 24 h",0.25 µg/mL
same,MIC,"Candida auris strains; 24 h, strain 18 VCPI 107/P/14, 24 h",0.125 µg/mL
same,MIC,"Candida auris strains; 24 h, strain 19 VCPI 510/P/14, 24 h",0.25 µg/mL
same,MIC,"Candida auris strains; 24 h, strain 20 VCPI 511/P/14, 24 h",0.25 µg/mL
same,MIC,"Candida auris strains; 24 h, strain 21 VCPI 512/P/14, 24 h",0.25 µg/mL
same,MIC,"Candida auris strains; 24 h, strain 22 VCPI 513/P/14, 24 h",0.5 µg/mL
same,MIC,"Candida auris strains; 24 h, strain 23 VCPI 514/P/14, 24 h",0.5 µg/mL
same,MIC,"Candida auris strains; 24 h, strain 24 VCPI 250/P/14, 24 h",0.25 µg/mL
same,MIC,"Candida auris strains; 24 h, strain 25 VCPI 265/P/14, 24 h",16 µg/mL
same,MIC,"Candida auris strains; 24 h, strain 26 VCPI 266/P/14, 24 h",0.5 µg/mL
same,MIC,"Candida auris strains; 24 h, strain 27 VCPI 462/P/14, 24 h",16 µg/mL
same,MIC,"Candida auris strains; 24 h, strain 28 VCPI 463/P/14, 24 h",0.125 µg/mL
same,MIC,"Candida auris strains; 24 h, strain 29 VCPI 467/P/14, 24 h",0.25 µg/mL
same,MIC,"Candida auris strains; 24 h, strain 30 VCPI 471a/P/14, 24 h",16 µg/mL
same,MIC,"Candida auris strains; 24 h, strain 31 VCPI 478/P/14, 24 h",0.5 µg/mL
same,MIC,"Candida auris strains; 24 h, strain 32 VCPI 518/P/14, 24 h",0.5 µg/mL
same,MIC,"Candida auris strains; 24 h, strain 33 VCPI 550/P/14, 24 h",0.5 µg/mL
same,MIC,"Candida auris strains; 24 h, strain 34 VCPI 714/P/14, 24 h",0.25 µg/mL
same,MIC,"Candida auris strains; 24 h, strain 35 VCPI 717/P/14, 24 h",0.25 µg/mL
same,MIC,"Candida auris strains; 24 h, strain 36 VCPI 1060/P/14, 24 h",0.25 µg/mL
same,MIC,"Candida auris strains; 24 h, strain 37 VCPI 74/P/15, 24 h",0.25 µg/mL
same,MIC,"Candida auris strains; 24 h, strain 38 VCPI 213/P/15, 24 h",0.25 µg/mL
same,MIC,"Candida auris strains; 48 h, strain 1 VPCI 669/P/12, 48 h",0.5 µg/mL
same,MIC,"Candida auris strains; 48 h, strain 2 VCPI 671/P/12, 48 h",0.5 µg/mL
same,MIC,"Candida auris strains; 48 h, strain 3 VCPI 674/P/12, 48 h",0.25 µg/mL
same,MIC,"Candida auris strains; 48 h, strain 4 VCPI 683/P/12, 48 h",0.5 µg/mL
same,MIC,"Candida auris strains; 48 h, strain 5 VCPI 692/P/12, 48 h",0.5 µg/mL
same,MIC,"Candida auris strains; 48 h, strain 6 VCPI 712/P/12, 48 h",0.25 µg/mL
same,MIC,"Candida auris strains; 48 h, strain 7 VCPI 471/P/13, 48 h",0.5 µg/mL
same,MIC,"Candida auris strains; 48 h, strain 8 VCPI 475/P/13, 48 h",0.5 µg/mL
same,MIC,"Candida auris strains; 48 h, strain 9 VCPI 478/P/13, 48 h",0.25 µg/mL
same,MIC,"Candida auris strains; 48 h, strain 10 VCPI 479/P/13, 48 h",0.25 µg/mL
same,MIC,"Candida auris strains; 48 h, strain 11 VCPI 480/P/13, 48 h",0.25 µg/mL
same,MIC,"Candida auris strains; 48 h, strain 12 VCPI 482/P/13, 48 h",0.25 µg/mL
same,MIC,"Candida auris strains; 48 h, strain 13 VCPI 483/P/13, 48 h",0.25 µg/mL
same,MIC,"Candida auris strains; 48 h, strain 14 VCPI 1130/P/13, 48 h",0.25 µg/mL
same,MIC,"Candida auris strains; 48 h, strain 15 VCPI 1132/P/13, 48 h",0.25 µg/mL
same,MIC,"Candida auris strains; 48 h, strain 16 VCPI 1133/P/13, 48 h",> 16 µg/mL
same,MIC,"Candida auris strains; 48 h, strain 17 VCPI 105/P/14, 48 h",0.25 µg/mL
same,MIC,"Candida auris strains; 48 h, strain 18 VCPI 107/P/14, 48 h",0.125 µg/mL
same,MIC,"Candida auris strains; 48 h, strain 19 VCPI 510/P/14, 48 h",0.25 µg/mL
same,MIC,"Candida auris strains; 48 h, strain 20 VCPI 511/P/14, 48 h",0.25 µg/mL
same,MIC,"Candida auris strains; 48 h, strain 21 VCPI 512/P/14, 48 h",0.25 µg/mL
same,MIC,"Candida auris strains; 48 h, strain 22 VCPI 513/P/14, 48 h",0.5 µg/mL
same,MIC,"Candida auris strains; 48 h, strain 23 VCPI 514/P/14, 48 h",0.5 µg/mL
same,MIC,"Candida auris strains; 48 h, strain 24 VCPI 250/P/14, 48 h",0.25 µg/mL
same,MIC,"Candida auris strains; 48 h, strain 25 VCPI 265/P/14, 48 h",> 16 µg/mL
same,MIC,"Candida auris strains; 48 h, strain 26 VCPI 266/P/14, 48 h",0.25 µg/mL
same,MIC,"Candida auris strains; 48 h, strain 27 VCPI 462/P/14, 48 h",> 16 µg/mL
same,MIC,"Candida auris strains; 48 h, strain 28 VCPI 463/P/14, 48 h",0.125 µg/mL
same,MIC,"Candida auris strains; 48 h, strain 29 VCPI 467/P/14, 48 h",0.25 µg/mL
same,MIC,"Candida auris strains; 48 h, strain 30 VCPI 471a/P/14, 48 h",> 16 µg/mL
same,MIC,"Candida auris strains; 48 h, strain 31 VCPI 478/P/14, 48 h",1 µg/mL
same,MIC,"Candida auris strains; 48 h, strain 32 VCPI 518/P/14, 48 h",0.5 µg/mL
same,MIC,"Candida auris strains; 48 h, strain 33 VCPI 550/P/14, 48 h",1 µg/mL
same,MIC,"Candida auris strains; 48 h, strain 34 VCPI 714/P/14, 48 h",0.25 µg/mL
same,MIC,"Candida auris strains; 48 h, strain 35 VCPI 717/P/14, 48 h",0.25 µg/mL
same,MIC,"Candida auris strains; 48 h, strain 36 VCPI 1060/P/14, 48 h",0.25 µg/mL
same,MIC,"Candida auris strains; 48 h, strain 37 VCPI 74/P/15, 48 h",0.25 µg/mL
same,MIC,"Candida auris strains; 48 h, strain 38 VCPI 213/P/15, 48 h",0.25 µg/mL
same,number of resistant isolates,Candida auris strains; of 38 C. auris isolates,4
same,animals completely cleared of CFU burden,"Candida albicans SC5314; CD101 SC 1 mg/kg, by 24 hr",4 of 5
same,kidney CFU compared with the vehicle control,"Candida albicans SC5314; CD101 SC 1, 3, and 10 mg/kg, 24 hr",significant reduction in kidney CFU
same,CFU clearance,"Candida albicans SC5314; CD101 SC 3 or 10 mg/kg, 24 hr",complete CFU clearance
same,Group Geometric mean (lung burden),A. fumigatus AF293; CD101 20 mg/kg IP Day −1,4.37 × 10^3 CFU/g
same,Log10 Group Geometric mean (lung burden),A. fumigatus AF293; CD101 20 mg/kg IP Day −1,3.64 CFU/g
same,Log10 reduction from vehicle control,A. fumigatus AF293; CD101 20 mg/kg IP Day −1,0.53 CFU/g
same,Group Geometric mean (lung burden),A. fumigatus AF293; CD101 60 mg/kg IP Day −1,1.38 × 10^4 CFU/g
same,Log10 Group Geometric mean (lung burden),A. fumigatus AF293; CD101 60 mg/kg IP Day −1,4.14 CFU/g
same,Log10 reduction from vehicle control,A. fumigatus AF293; CD101 60 mg/kg IP Day −1,0.03 CFU/g
same,metabolic activity (XTT) of mature biofilms,"[1]; CD101 0.25 and 1 μg/ml, 24 h, vs untreated",significantly less metabolic activity
same,thickness of biofilms,"[1]; CD101, untreated control 43 μm",24 μm
